Structures can show the parent of a compound that is named as a salt. Where two headings read alike, the source gives them in different places.

Common to all, as to format: in vivo
In data set [1] the test system is Male mice of ddY strain. Description: Test 1 Anti-nicotine activity (inhibition of nicotine-induced convulsive death). The settings on record: 200 mg/kg po, nicotine 2 mg/kg iv after 1 h, observed 1 h; for responders at 200 mg/kg: Mus musculus. As to the method: Male mice of ddY strain, weighing 28 to 33 g, were used in groups of eight or twelve. The test compounds were dissolved in distilled water and administered orally in a dose of 200 mg/kg. After an hour, nicotine was intravenously administered in a dose of 2 mg/kg.

The subject of data set [2] is Male mice of ddY strain. Briefly: Test 2 Anti-tremorine activity (inhibition of tremorine-induced tremor). As to conditions: for responders at 50 mg/kg: Mus musculus, po, read-out: Inhibition of tremor (%).
Procedure: Male mice of ddY strain, weighing 28 to 32 g, were used in groups of eight or ten. The test compounds were dissolved in distilled water and administered orally in a dose of 50 mg/kg. After 30 minutes, tremorine dihydrochloride was subcutaneously administered in a dose of 20 mg/kg. Then, the occurrence of tremor was observed after the lapse of 30 and 60 minutes.
In data set [3] the test system is Male mice of ddY strain. Briefly: Test 3 Muscle relaxant activity (traction test, method of Courvoisier et al.). As to conditions: 15 minutes after administration, groups of ten.
Procedure: Male mice of ddY strain, weighing 30 to 37 g, were used in groups of ten. The test compounds were dissolved in physiological saline and administered intraperitoneally in a dose of 50 or 75 mg/kg. […] This method involves a traction test in which the animal is hung by its forelimbs on a horizontal metal rod (2 mm in diameter) placed 20 cm above the floor and examined as to whether it can put its hindlimb on the rod or not.
Specifically, 15 minutes after administration of a test compound, the mouse was hung on the rod by its forelimbs. […] It had been confirmed in preliminary tests that, under normal conditions, all the mice could put their hindlimb on the rod within 5 seconds.
Data set [4] can be described thus: Test 5 Acute toxicity (LD50, method of Behrens and Kärbar). The settings on record: mouse, in vivo, po, Table-5a, mice, observed for 7 days. As to the method:
Male mice of ddY strain, weighing 25 to 30 g, were used in groups of five. The test compounds were dissolved in distilled water and administered orally in various doses. […] Then, the LDso was calculated according to the method of Behrens and Kärbar.

[5] abbreviates: po, 1 h, Table-2a, 8 animals used.
[6] abbreviates: 0.5 h, Table-3a, 50 mg/kg po, After 30 min. from tremorine 20 mg/kg sc, 8 animals used.
[7] abbreviates: 1 h, Table-3a, 50 mg/kg po, After 60 min. from tremorine 20 mg/kg sc, 8 animals used.
Setting [8] is: Table-3a, 50 mg/kg po, After 30 min. from tremorine 20 mg/kg sc, 8 animals used.
The mark [9] stands for this setting: Table-3a, 50 mg/kg po, After 60 min. from tremorine 20 mg/kg sc, 8 animals used.
Where [10] appears, read: po, 1 h, Table-2c, 12 animals used.
Where [11] appears, read: 0.5 h, Table-3d, 50 mg/kg po, After 30 min., 10 animals used.
Where [12] appears, read: 1 h, Table-3d, 50 mg/kg po, After 60 min., 10 animals used.
[13] abbreviates: Table-3d, 50 mg/kg po, After 30 min., 10 animals used.
Setting [14] is: Table-3d, 50 mg/kg po, After 60 min., 10 animals used.
The mark [15] stands for this setting: 0.5 h, Table-3b, 50 mg/kg po, After 30 min., 10 animals used.
Where [16] appears, read: 1 h, Table-3b, 50 mg/kg po, After 60 min., 10 animals used.
[17] abbreviates: Table-3b, 50 mg/kg po, After 30 min., 10 animals used.
Where [18] appears, read: Table-3b, 50 mg/kg po, After 60 min., 10 animals used.

In the case of `CCC(CN1CCCC1)C(=O)c1ccc(C2CC2)cc1.Cl` (stereo not drawn) [Example 10, 1-(4-Cyclopropylphenyl)-2-ethyl-3-(1-pyrrolidinyl)-1-propanone hydrochloride], the responders at 200 mg/kg in data set [1] (setting [5]) was determined as 0%. Further, in data set [1] (Table-2a, 8 animals used), the “Number of surviving animals” value was 0. Further, the responders at 50 mg/kg in data set [2] (setting [6]) and in data set [2] (setting [7]) was 100% in each case. Moreover, the “Number of animals exhibiting no tremor” value in data set [2] (setting [8]) and in data set [2] (setting [9]) was 8 each time.
Turning to `CCC(CN1CCCCCC1)C(=O)c1ccc2c(c1)CCO2.Cl` (stereo not drawn) [Example 96, 1-(2,3-Dihydro-5-benzofuranyl)-2-ethyl-3-(hexa-hydro-1H-azepin-1-yl)-1-propanone hydrochloride], the responders at 200 mg/kg in data set [1] (setting [10]) stood at 41.7%. Besides, in data set [1] (Table-2c, 12 animals used), the “Number of surviving animals” value stood at 5. Moreover, the responders at 50 mg/kg in data set [2] (setting [11]) and in data set [2] (setting [12]) was 100% in each case. For the same molecule, the “Number of animals exhibiting no tremor” value in data set [2] (setting [13]) and in data set [2] (setting [14]) was 10 each time.
As for `CC(CN1CCCC1)C(=O)c1ccc2c(c1)OCO2` (stereo not drawn) [Example 60, 2-Methyl-1-(3,4-methylenedioxyphenyl)-3-(1-pyrrolidi-nyl)-1-propanone hydrochloride], in data set [1] (Table-2b, 12 animals used), the responders at 200 mg/kg was 58.3% and the “Number of surviving animals” value worked out at 7.
“1-(2,3-Dihydro-5-benzofuranyl)-2-ethyl-3-piperidino-1-propanone hydrochloride [Example 89]”: in data set [3] (Table-4d, 75 mg/kg ip), the “Muscle relaxation rate (%)” value was 50% and the “Number of animals exhibiting muscle relaxation” value stood at 5. Besides, in data set [1] (Table-2c, 12 animals used), the “Inhibition of death (%)” value is 66.7% and the “Number of surviving animals” value is listed as 8. Moreover, in data set [2] (setting [13]), the “Inhibition of tremor (%)” value amounted to 100% and the “Number of animals exhibiting no tremor” value worked out at 10. In addition, in data set [2] (setting [14]), the “Inhibition of tremor (%)” value was 100% and the “Number of animals exhibiting no tremor” value is 10.
For `CCC(CN1CCCCC1)C(=O)c1ccc(C2CC2)cc1.Cl` (stereo not drawn) [Example 11, 1-(4-Cyclopropylphenyl)-2-ethyl-3-piperidino-1-propanone hydrochloride], the responders at 200 mg/kg in data set [1] (setting [5]) came to 37.5%. The “Number of surviving animals” value in data set [1] (Table-2a, 8 animals used) is recorded as 3. The responders at 50 mg/kg in data set [2] (setting [6]) and in data set [2] (setting [7]) was 100% throughout. Moreover, the “Number of animals exhibiting no tremor” value in data set [2] (setting [8]) and in data set [2] (setting [9]) was 8 in each case.
On to `CCC(CN1CCCC1)C(=O)c1ccc2c(c1)OCO2` (stereo not drawn) [Example 56, 2-Ethyl-1-(3,4-methylenedioxyphenyl)-3-(1-pyrrolidi-nyl)-1-propanone hydrochloride], for which, in data set [1] (Table-2b, 12 animals used), the responders at 200 mg/kg was 41.7% and the “Number of surviving animals” value came out at 5.
For the molecule `CC(CN1CCCCCC1)C(=O)c1ccc(C2CC2)cc1.Cl` (stereo not drawn) [Example 9, 1-(4-Cyclopropylphenyl)-2-methyl-3-(hexahydro-1H-azepin-1-yl)-1-propanone hydrochloride], the “Number of animals exhibiting muscle relaxation” value in data set [3] (Table-4a, 50 mg/kg ip) is reported as 7. In data set [1] (setting [5]), the responders at 200 mg/kg was 75%. In addition, the “Number of surviving animals” value in data set [1] (Table-2a, 8 animals used) turned out to be 6. Besides, the LD50 (commonly the dose expected to kill half of the subjects tested) at 168 h in data set [4] came out at 655 mg/kg. Besides, the responders at 50 mg/kg in data set [2] (setting [6]) turned out to be 100%; in data set [2] (setting [7]), 87.5%.
As to `CC(CN1CCCC1)C(=O)c1ccc(C2CC2)cc1.Cl` (stereo not drawn) [Example 8, 1-(4-Cyclopropylphenyl)-2-methyl-3-(1-pyrrolidinyl)-1-propanone hydrochloride], the “Number of animals exhibiting muscle relaxation” value in data set [3] (Table-4a, 50 mg/kg ip) is 7. In addition, in data set [1] (setting [5]), the responders at 200 mg/kg came to 62.5%. Besides, the “Number of surviving animals” value in data set [1] (Table-2a, 8 animals used) came to 5. Also, the 50% lethal dose (LD50) at 168 h in data set [4] is 505 mg/kg. In addition, the figures for the responders at 50 mg/kg in data set [2] (setting [6]) and in data set [2] (setting [7]) were 100% and 87.5%, respectively.
With `Cl.O=C(c1ccc(C2CC2)cc1)C(CN1CCCCC1)C1CCCC1` (stereo not drawn) [Example 37, 2-Cyclopentyl-1-(4-cyclopropylphenyl)-3-piperidino-1-propanone hydrochloride], the responders at 50 mg/kg in data set [2] (setting [15]) and in data set [2] (setting [16]) was 80% each time. In addition, the “Number of animals exhibiting no tremor” value in data set [2] (setting [17]) and in data set [2] (setting [18]) was 8 throughout.
For the molecule `CCCC(CN1CCCC1)C(=O)c1ccc2c(c1)CCO2.Cl` (stereo not drawn) [Example 98, 1-(2,3-Dihydro-5-benzofuranyl)-2-n-propyl-3-(1-pyrrolidinyl)-1-propanone hydrochloride], in data set [1] (Table-2c, 12 animals used), the responders at 200 mg/kg came out at 0% and the “Number of surviving animals” value came to 0. Also, the responders at 50 mg/kg in data set [2] (0.5 h) is 100%. In addition, in data set [2] (1 h), the responders at 50 mg/kg amounted to 90%.
For the molecule `CC(CN1CCCCC1)C(=O)c1ccc(C2CCCCC2)cc1.Cl` (stereo not drawn) [Example 48, 1-(4-Cyclohexylphenyl)-2-methyl-3-piperidino-1-propanone hydrochloride], the responders at 200 mg/kg in data set [1] (setting [5]) came out at 62.5%. Further, the “Number of surviving animals” value in data set [1] (Table-2a, 8 animals used) came out at 5. For the same molecule, the responders at 50 mg/kg in data set [2] (setting [6]) amounted to 100%; in data set [2] (setting [7]), 37.5%.
As for `CC(CN1CCCCCC1)C(=O)c1ccc2c(c1)OCO2.Cl` (stereo not drawn) [Example 61, 2-Methyl-1-(3,4-methylenedioxyphenyl)-3-(hexahydro-1H-azepin-1-yl)-1-propanone hydrochloride], in data set [1] (Table-2b, 12 animals used), the responders at 200 mg/kg stood at 58.3% and the “Number of surviving animals” value worked out at 7.
In data set [1] (setting [5]), `CC(CN1CCCCC1)C(=O)c1ccc(C2CCCC2)cc1.Cl` (stereo not drawn) [Example 41, 1-(4-Cyclopentylphenyl)-2-methyl-3-piperidino-1-propanone hydrochloride] had a responders at 200 mg/kg of 37.5%. In data set [1] (Table-2a, 8 animals used), the “Number of surviving animals” value is on record as 3. The results for the responders at 50 mg/kg in data set [2] (setting [6]) and in data set [2] (setting [7]) were 75% and 12.5%, respectively.
Molecule `CCCC(CN1CCCCCC1)C(=O)c1ccc2c(c1)CCO2.Cl` (stereo not drawn) [Example 100, 1-(2,3-Dihydro-5-benzofuranyl)-2-n-propyl-3-(hexahydro-1H-azepin-1-yl)-1-propanone hydrochloride] returned a responders at 200 mg/kg in data set [1] (Table-2c, 12 animals used) of 0%. The “Number of surviving animals” value in data set [1] (Table-2c, 12 animals used) was found to be 0. In addition, the responders at 50 mg/kg in data set [2] (0.5 h) and in data set [2] (1 h) was 100% each time. Moreover, the “Number of animals exhibiting no tremor” value in data set [2] (setting [13]) and in data set [2] (setting [14]) was 10 each time.
In data set [1] (Table-2c, 12 animals used), `CCC(CN1CCCC1)C(=O)c1ccc2c(c1)CCO2.Cl` (stereo not drawn) [Example 95, 1-(2,3-Dihydro-5-benzofuranyl)-2-ethyl-3-(1-pyrrolidinyl)-1-propanone hydrochloride] registered a responders at 200 mg/kg of 16.7%. In data set [1] (Table-2c, 12 animals used), the “Number of surviving animals” value worked out at 2. For the same molecule, the responders at 50 mg/kg in data set [2] (0.5 h) and in data set [2] (1 h) was 100% throughout. Also, the “Number of animals exhibiting no tremor” value in data set [2] (setting [13]) and in data set [2] (setting [14]) was 10 in each case.
As for `CC(C)C(CN1CCCCC1)C(=O)c1ccc(C2CC2)cc1.Cl` (stereo not drawn) [Example 5, 1-(4-Cyclopropylphenyl)-2-isopropyl-3-piperidino-1-propanone hydrochloride], the responders at 50 mg/kg in data set [2] (setting [15]) and in data set [2] (setting [16]) was 100% each time. Moreover, the “Number of animals exhibiting no tremor” value in data set [2] (setting [17]) and in data set [2] (setting [18]) was 10 each time.
For the molecule `CCCC(CN1CCCCC1)C(=O)c1ccc2c(c1)CCO2.Cl` (stereo not drawn) [Example 99, 1-(2,3-Dihydro-5-benzofuranyl)-2-n-propyl-3-piperidino-1-propanone hydrochloride], in data set [3] (Table-4d, 75 mg/kg ip), the “Number of animals exhibiting muscle relaxation” value is on record as 2. In addition, the responders at 200 mg/kg in data set [1] (setting [10]) amounted to 25%. Further, the “Number of surviving animals” value in data set [1] (Table-2c, 12 animals used) is listed as 3. For the same molecule, the results for the responders at 50 mg/kg in data set [2] (setting [11]) and in data set [2] (setting [12]) were 100% and 90%, respectively.
